According to patent US20080242870A1 (priority 2006, published 2008):
Read-outs that look alike come from different tables or passages of the source.

Key:
[1] = cited from earlier work
[2] = not given; remark: listed apart in the source
[3] = Sodium sensing: quantum yield vs sodium perchlorate concentration; settings: in acetonitrile
Procedure: The benzo 15-crown-5 anthracene diimide derivative was synthesized because crown ethers are known for their ability to bind with metals. […] The extinction coefficient, ∈, was determined to be 16,000 M^−1 cm^−1 and the quantum yield, Φ, 0.02 (both were measured in acetonitrile). The emission spectrum for this compound was more complicated than the others. An excimer effect was evident in higher concentration samples and was more prominent in non-polar solvents. The excimer complicated the lifetime in toluene with a short component for the excited dimer state.

[4] = Emission spectrum and quantum yield of perylene diimide (Example 5); format: physicochemical
[5] = Absorption spectrum of perylene diimide (Example 5); format: physicochemical; settings: CH2Cl2
Solubility = settings: polar organic solvents
[6] = Fluorescence lifetime by TCSPC (Example 5); format: physicochemical; settings: room temperature, CH2Cl2
Procedure: (§1) Luminescence lifetimes were measured with an IBH time-correlated single photon counting (TCSPC) system equipped with an IBH Model TBX-04 Photon Detection Module. The excitation source for the TCSPC measurements was a pulsed LED (IBH NanoLED, 455 nm, 1.3 ns pulse duration or 403 nm, <200 ps pulse duration) with a repetition rate of 1 MHz. All data was analyzed by iterative reconvolution of the decay profile (10,000 counts at the peak channel) with the instrument response function using software provided by the instrument manufacturer.

[7] = depending on the solvent
Procedure: as §1

[8] = Fluorescence quenching by 2,4-dinitrotoluene (Stern-Volmer); settings: concentrated and dilute solutions in toluene

c1ccc2cc3ccccc3cc2c1 [anthracene]
Φr of standard ([1]; in EtOH): 0.27

N,N′-Bis(benzo 15-crown-5)-1,5-bis(phenyl)anthracene-2,3,6,7-tetracarboxyl diimide
quantum yield, Φ (in acetonitrile): 0.02
extinction coefficient, ∈ ([2]; in acetonitrile): 16,000 M^−1 cm^−1
sodium sensing [3]: effective sensor of sodium perchlorate

CCCCCCCCn1c(=O)c2c(-c3ccccc3)c3cccc4c3c(c3cccc5c(-c6ccccc6)c6c(=O)n(CCCCCCCC)c(=O)c6c4c53)c2c1=O [Compound 59, N,N′-Bis(octyl)-3,9-bis(phenyl)-perylene-1,2,7,8-tetracarboxyl diimide]
quantum yield ([4]; measured against fluorescein): 0.67
Stokes' shift ([4]; room temperature, CH2Cl2): 26 nm
fluorescence λmax ([4]; room temperature, CH2Cl2, 425 nm excit.): 517 nm
extinction coefficient ([5]; at absorption λmax): 29,000 M^−1 cm^−1
absorption λmax ([5]; room temperature): ~491 nm
solubility (Solubility): soluble in polar organic solvents
single exponential lifetime [6]: 5.01 ns

F[P-](F)(F)(F)(F)F.F[P-](F)(F)(F)(F)F.[Ru+2].c1ccc(-c2ccccn2)nc1.c1ccc(-c2ccccn2)nc1.c1ccc(-c2ccccn2)nc1 [[Ru(bpy)3](PF6)2]
Φr of standard ([1]; in CH3CN): 0.062

N,N′-Bis(p-(tert-butyl)phenyl)-1,5-bis(phenyl)anthracene-2,3,6,7-tetracarboxyl diimide
quantum yield, Φ (in toluene): 0.29
extinction coefficient, ∈ ([2]; in toluene): 8,500 M^−1 cm^−1
lifetime (single exponential) [7]: around 5.5 ns

N,N′-Bis(p-triphenyl amine)-1,5-bis(phenyl)anthracene-2,3,6,7-tetracarboxyl diimide
quantum yield, Φ (in toluene): 0.09
extinction coefficient, ∈ ([2]; in toluene): 22,000 M^−1 cm^−1
2,4-dinitrotoluene sensing (quenching) [8]: effective 2,4-dinitrotoluene (DNT) sensor
